Assay results reported in patent US7459581B2, “Anti-bacterial compounds” (Givaudan S.A., priority 2004, dated 2008).
Converted amounts (≈) assume the structure as drawn. Read-outs that look alike come from different tables or passages of the source.

Legend:
C. xerosis DSM 20170 [1] = assay: Bactericidal activity (MBC), 60 min contact; assay type: cell-based, Corynebacterium xerosis; settings: complete kill of inoculum after 60 min incubation; regrowth read after 24 h at 36° C.
Text: (§1) The different axilla bacteria are isolated from the human axilla according to techniques known in the art, in particular according to standard microbiological practice. They are taxonomically identified by cell morphology, gram-reaction and biochemical tests included in the Api coryne test kit (BioMerieux, France). Strain Staphylococcus epidermidis Ax25 is identified by fatty acid methyl ester analysis (FAME; German type strain collection DSMZ, Germany). Escherichia coli DSM 682, Staphylococcus aureus DSM 799, and Corynebacterium xerosis DSM 20170 are obtained from the German-type strain collection.
(§2) The strains are maintained on Tryptic soy broth plates, this standard medium being supplemented with 5 g per litre of Polyoxyethylene Sorbitan Monooleate (Tween™ 80). Plates are incubated at 36° C. for a period 48 hours. The bacteria are then swabbed from the plates and suspended in 4 ml of Müller-Hinton broth supplemented with 100 mg of Tween™ 80 per litre (MH-Tween™) and incubated again at 36° C. for 16 hours. Following incubation, the bacterial suspensions are diluted in MH-Tween™ to obtain a final cell density of 10^7 colony forming units per ml. These diluted suspensions of the different test organisms are distributed to different columns of a microtiter plate, 100 μl per well. The test compounds are dissolved in dimethylsulfoxide (DMSO) at various test concentrations and 2.5 μl of these different DMSO solutions are added to the different wells of the test plates. The plates are covered with plastic films and incubated for 24 h at 36° C. with shaking at 250 rpm. The turbidity developing in the microtiter plates is then examined after 24 h to determine microbial growth. The minimal concentration of test compounds inhibiting the growth of an organism by at least 80% is determined as the minimal inhibitory concentration (MIC).
(§3) The bactericidal effects of the compounds of the present invention are further tested. The bacteria are grown, harvested and diluted under the same conditions as described in example 10 above and added to microtiter plates (100 μl per well), each well containing 2.5 μl of the different DMSO solutions as described above. After 60 min incubation, 0.5 μl of the bacterial culture from each well (corresponding to 5×10^3 cfu in the control treatment) is transferred to a fresh microtiter plate which contained 100 μl per well of fresh medium. The plates are covered with plastic films and incubated for 24 h at 36° C. with shaking at 250 rpm. The turbidity developing in the microtiter plates is then examined after 24 h to determine microbial growth. The minimal concentration of test compounds which completely killed the bacterial inoculum is determined as the minimal bactericidal concentration (MBC).

S. epidermidis Ax 25 [2] = assay: Bactericidal activity (MBC), 60 min contact; assay type: cell-based, Staphylococcus epidermidis; settings: complete kill of inoculum after 60 min incubation; regrowth read after 24 h at 36° C.
Text: as §1, §2, §3

Candida albicans = assay: Antifungal (fungistatic) activity, MIC; assay type: cell-based; settings: growth inhibition by at least 80%, 48 h, Saboureaud liquid medium, 10^5 cfu per ml
Procedure: as §2
(§4) The fungistatic effects of the compounds of the present invention are tested against the standard strains Candida albicans and Aspergillus niger. The strains are maintained on Potato dextrose agar plates. Plates are incubated at 30° C. for a period of 72 hours. The fungal inoculum is then swabbed from the plates and suspended in Saboureaud liquid medium and incubated again at 30° C. for 24 hours in the case of C. albicans. For A. niger the inoculum containing the fungal spores is directly harvested from the agar plates and suspended in distilled water. The inoculum is then diluted in Saboureaud liquid medium to obtain a final cell density of 10^5 colony forming units per ml. The test for fungistatic activity using differently concentrated DMSO stock solutions in microtiter plates is then conducted as described in example 10 for the bacteriostatic activity. The turbidity developing in the microtiter plates is then examined after 48 h to determine fungal growth. The minimal concentration of test compounds inhibiting the growth of an organism by at least 80% is determined as the minimal inhibitory concentration (MIC).

Aspergillus niger = assay: Antifungal (fungistatic) activity, MIC; assay type: cell-based; settings: growth inhibition by at least 80%, 48 h, Saboureaud liquid medium, 10^5 cfu per ml
Procedure: as §2, §4

Corynebacterium Ax 15 [3] = assay: Bacteriostatic activity (MIC), microtiter turbidity; assay type: cell-based, Corynebacterium jeikeium; settings: read-out: MIC Corynebacterium Ax 15
Text: as §1, with “Germany).” for “Germany). Escherichia coli DSM 682, Staphylococcus aureus DSM 799, and Corynebacterium xerosis DSM 20170 are obtained from the German-type strain collection.”
as §2, with “growth.” for “growth. The minimal concentration of test compounds inhibiting the growth of an organism by at least 80% is determined as the minimal inhibitory concentration (MIC).”

S. epidermidis Ax 25 [4] = assay: as above; assay type: cell-based; settings: Staphylococcus epidermidis, read-out: MIC S. epidermidis Ax 25
Text: as §1, with “Germany).” for “Germany). Escherichia coli DSM 682, Staphylococcus aureus DSM 799, and Corynebacterium xerosis DSM 20170 are obtained from the German-type strain collection.”
as §2, with “growth.” for “growth. The minimal concentration of test compounds inhibiting the growth of an organism by at least 80% is determined as the minimal inhibitory concentration (MIC).”

Escherichia coli DSM 682 [5] = assay: as above; assay type: cell-based; settings: read-out: MIC Escherichia coli DSM 682
Text: as §1, with “Germany).” for “Germany). Escherichia coli DSM 682, Staphylococcus aureus DSM 799, and Corynebacterium xerosis DSM 20170 are obtained from the German-type strain collection.”
as §2, with “growth.” for “growth. The minimal concentration of test compounds inhibiting the growth of an organism by at least 80% is determined as the minimal inhibitory concentration (MIC).”

C. xerosis DSM 20170 [6] = assay: as above; assay type: cell-based; settings: Corynebacterium xerosis, read-out: MIC C. xerosis DSM 20170
Text: as §1, with “Germany).” for “Germany). Escherichia coli DSM 682, Staphylococcus aureus DSM 799, and Corynebacterium xerosis DSM 20170 are obtained from the German-type strain collection.”
as §2, with “growth.” for “growth. The minimal concentration of test compounds inhibiting the growth of an organism by at least 80% is determined as the minimal inhibitory concentration (MIC).”

[7] = tested on: Staphylococcus aureus DSM 799; assay: as above; assay type: cell-based; settings: read-out: MIC Staphylococcus aureus DSM 799
Text: as §1, with “Germany).” for “Germany). Escherichia coli DSM 682, Staphylococcus aureus DSM 799, and Corynebacterium xerosis DSM 20170 are obtained from the German-type strain collection.”
as §2, with “growth.” for “growth. The minimal concentration of test compounds inhibiting the growth of an organism by at least 80% is determined as the minimal inhibitory concentration (MIC).”

Corynebacterium Ax 7 [8] = assay: Bactericidal activity (MBC), 60 min contact; assay type: cell-based, Corynebacterium group G; settings: complete kill of inoculum after 60 min incubation; regrowth read after 24 h at 36° C.
Text: as §1, §2, §3

Corynebacterium Ax 15 [9] = assay: Bactericidal activity (MBC), 60 min contact; assay type: cell-based, Corynebacterium jeikeium; settings: complete kill of inoculum after 60 min incubation; regrowth read after 24 h at 36° C.
Text: as §1, §2, §3

Corynebacterium Ax 7 [10] = assay: Bacteriostatic activity (MIC), microtiter turbidity; assay type: cell-based, Corynebacterium group G; settings: read-out: MIC Corynebacterium Ax 7
Text: as §1, with “Germany).” for “Germany). Escherichia coli DSM 682, Staphylococcus aureus DSM 799, and Corynebacterium xerosis DSM 20170 are obtained from the German-type strain collection.”
as §2, with “growth.” for “growth. The minimal concentration of test compounds inhibiting the growth of an organism by at least 80% is determined as the minimal inhibitory concentration (MIC).”

Escherichia coli DSM 682 [11] = assay: Bactericidal activity (MBC), 60 min contact; assay type: cell-based; settings: complete kill of inoculum after 60 min incubation; regrowth read after 24 h at 36° C.
Text: as §1, §2, §3

[12] = tested on: Staphylococcus aureus DSM 799; assay: Bactericidal activity (MBC), 60 min contact; assay type: cell-based; settings: complete kill of inoculum after 60 min incubation; regrowth read after 24 h at 36° C.
Text: as §1, §2, §3

[13] = AX15, growth inhibition by at least 80%, 24 h at 36° C., MH-Tween, 10^7 cfu per ml
[14] = AX25, growth inhibition by at least 80%, 24 h at 36° C., MH-Tween, 10^7 cfu per ml
[15] = DSM682, growth inhibition by at least 80%, 24 h at 36° C., MH-Tween, 10^7 cfu per ml
[16] = DSM20170, growth inhibition by at least 80%, 24 h at 36° C., MH-Tween, 10^7 cfu per ml
[17] = DSM799, growth inhibition by at least 80%, 24 h at 36° C., MH-Tween, 10^7 cfu per ml
[18] = AX7, growth inhibition by at least 80%, 24 h at 36° C., MH-Tween, 10^7 cfu per ml

SMILES | MBC C. xerosis DSM 20170 (C. xerosis DSM 20170 [1]) | MBC S. epidermidis Ax 25 (S. epidermidis Ax 25 [2]) | MIC C. albicans (Candida albicans) | MIC A. niger (Aspergillus niger) | MIC (Corynebacterium Ax 15 [3]; [13]) | MIC (S. epidermidis Ax 25 [4]; [14]) | MIC (Escherichia coli DSM 682 [5]; [15]) | MIC (C. xerosis DSM 20170 [6]; [16]) | MIC [7, 17] | MBC Corynebacterium Ax 7 (Corynebacterium Ax 7 [8]) | MBC Corynebacterium Ax 15 (Corynebacterium Ax 15 [9]) | MIC (Corynebacterium Ax 7 [10]; [18]) | MBC Escherichia coli DSM 682 (Escherichia coli DSM 682 [11]) | MBC Staphylococcus aureus DSM 799 [12] | MIC (Corynebacterium Ax 15 [3]; AX15, 24 h) | MIC (S. epidermidis Ax 25 [4]; AX25, 24 h) | MIC (Escherichia coli DSM 682 [5]; DSM682, 24 h) | MIC (C. xerosis DSM 20170 [6]; DSM20170, 24 h) | MIC ([7]; DSM799, 24 h) | MIC (Corynebacterium Ax 7 [10]; AX7, 24 h)
CCCCC(CC)COC(=O)CO (centres unmarked) [Compound 1., Hydroxy-acetic acid 2-ethyl-hexyl ester] | 0.125 % (weight/volume) | 0.25 % (weight/volume) | 0.0625 % (weight/volume) | 0.125 % (weight/volume) | 1250 µg/mL (≈ 6640 µM) | 1250 µg/mL (≈ 6640 µM) | 1250 µg/mL (≈ 6640 µM) | 1250 µg/mL (≈ 6640 µM) | 2500 µg/mL (≈ 13300 µM) | 0.125 % (weight/volume) | 0.125 % (weight/volume) | 1250 µg/mL (≈ 6640 µM) | – | – | – | – | – | – | – | –
CCCCCCC(CCCC)COC(=O)CO (centres unmarked) [Compound 2., Hydroxy-acetic acid 2-butyl-octyl ester] | >0.25 % (weight/volume) | >0.25 % (weight/volume) | – | – | 40 µg/mL (≈ 164 µM) | 80 µg/mL (≈ 327 µM) | > 2500 µg/mL | 80 µg/mL (≈ 327 µM) | 310 µg/mL (≈ 1270 µM) | >0.25 % (weight/volume) | >0.25 % (weight/volume) | 80 µg/mL (≈ 327 µM) | – | – | – | – | – | – | – | –
CCCCCCCCC(CCCCCC)COC(=O)CO (centres unmarked) [Compound 3., Hydroxy-acetic 2-hexyl-decyl ester] | >0.25 % (weight/volume) | >0.25 % (weight/volume) | – | – | 39 µg/mL (≈ 130 µM) | ≤ 19 µg/mL | > 2500 µg/mL | > 2500 µg/mL | > 2500 µg/mL | >0.25 % (weight/volume) | >0.25 % (weight/volume) | 2500 µg/mL (≈ 8320 µM) | >0.25 % (weight/volume) | >0.25 % (weight/volume) | – | – | – | – | – | –
CCCCC(CC)COC(=O)CN (centres unmarked) [Compound 4., 2-Ethyl-hexyloxycarbonylmethyl-ammonium chloride] | >0.25 % (weight/volume) | 0.25 % (weight/volume) | – | – | – | – | – | – | – | 0.25 % (weight/volume) | 0.25 % (weight/volume) | – | 0.125 % (weight/volume) | 0.25 % (weight/volume) | 310 µg/mL | 630 µg/mL | 630 µg/mL | 310 µg/mL | 630 µg/mL | 310 µg/mL
CCCCCCC(CCCC)COC(=O)CN (centres unmarked) [Compound 5., 2-Butyl-octyloxycarbonylmethyl-ammonium chloride] | 0.004 % (weight/volume) | 0.004 % (weight/volume) | 0.0078 % (weight/volume) | 0.0039 % (weight/volume) | – | – | – | – | – | 0.002 % (weight/volume) | 0.002 % (weight/volume) | – | 0.004 % (weight/volume) | 0.004 % (weight/volume) | 10 µg/mL | 20 µg/mL | 20 µg/mL | 20 µg/mL | 80 µg/mL | 10 µg/mL
CCCCCCCCC(CCCCCC)COC(=O)CN (centres unmarked) [Compound 6., 2-Hexyl-decyloxycarbonylmethyl-ammonium chloride] | 0.002 % (weight/volume) | 0.002 % (weight/volume) | 0.0156 % (weight/volume) | 0.002 % (weight/volume) | – | – | – | – | – | 0.0005 % (weight/volume) | 0.0005 % (weight/volume) | – | 0.016 % (weight/volume) | 0.004 % (weight/volume) | 5 µg/mL | 5 µg/mL | 20 µg/mL | 10 µg/mL | 20 µg/mL | 5 µg/mL
CCCCCCCCCCCC(=O)OCC(O)CO (centres unmarked) [Compound C1, Dodecanoic acid 2,3-dihydroxy-propyl ester, reference compound] | – | – | – | – | – | – | – | – | – | – | – | – | – | – | 1250 µg/mL (≈ 4560 µM) | < 80 µg/mL | > 5000 µg/mL | 320 µg/mL (≈ 1170 µM) | 80 µg/mL (≈ 292 µM) | 160 µg/mL (≈ 583 µM)
Oc1cc(Cl)ccc1Oc1ccc(Cl)cc1Cl [Compound C4, Triclosan, reference compound] | – | – | – | – | – | – | – | – | – | – | – | – | – | – | 30 µg/mL (≈ 104 µM) | 0.15 µg/mL (≈ 0.518 µM) | 5 µg/mL (≈ 17.3 µM) | 15 µg/mL (≈ 51.8 µM) | 5 µg/mL (≈ 17.3 µM) | 30 µg/mL (≈ 104 µM)
